This note sets out measurements from US4956362A, “Use of carpipramine for the treatment of anxiety and sleep disorders” (Rhone-Poulenc Sante, a French Body Corporate, priority 1988, dated 1990).

In general, IC50 refers to the midpoint of a concentration-inhibition curve. A low value points to greater potency. In general, LD50 refers to the dose expected to kill half of the subjects tested.

The target in series [1] is T1, central serotonin receptor sites (type S2) (Rattus norvegicus, UniProt P14842).
T1 construct: central serotonin receptor sites (type S2); from tissue; the cited Leysen 1982 method used rat prefrontal/frontal cortex, own knowledge
Briefly: Affinity for central serotonin receptor sites (type S2), tritiated ketanserin binding. The method, then:
The affinity of carpipramine for central serotonin receptor sites (type S2) was determined by a technique based on that of J. E. LEYSEN et al., Mol. Pharmacol. 21, 301 (1982), which consists in measuring the affinity of the product for binding sites for tritiated ketanserin. In this test, the IC50 of carpipramine is 3 nM.

Series [2] relates to mescaline-induced heat twitches. Briefly: Antagonism of mescaline-induced heat twitches in mice. Format: in vivo. The settings on record: Mus musculus, sc, subcutaneously administered, read-out: AD50 (the source's name). The method, then:
In this test, the AD50 of subcutaneously administered carpipramine is 8 mg/kg.

Series [3] can be described thus: Acute oral toxicity in mice. The settings on record: mouse, in vivo, po; administered orally in mice.
A further series concerns mice. Briefly: Acute oral toxicity in mice. The settings on record: mouse, in vivo.

T1 sequence (P14842 whole entry): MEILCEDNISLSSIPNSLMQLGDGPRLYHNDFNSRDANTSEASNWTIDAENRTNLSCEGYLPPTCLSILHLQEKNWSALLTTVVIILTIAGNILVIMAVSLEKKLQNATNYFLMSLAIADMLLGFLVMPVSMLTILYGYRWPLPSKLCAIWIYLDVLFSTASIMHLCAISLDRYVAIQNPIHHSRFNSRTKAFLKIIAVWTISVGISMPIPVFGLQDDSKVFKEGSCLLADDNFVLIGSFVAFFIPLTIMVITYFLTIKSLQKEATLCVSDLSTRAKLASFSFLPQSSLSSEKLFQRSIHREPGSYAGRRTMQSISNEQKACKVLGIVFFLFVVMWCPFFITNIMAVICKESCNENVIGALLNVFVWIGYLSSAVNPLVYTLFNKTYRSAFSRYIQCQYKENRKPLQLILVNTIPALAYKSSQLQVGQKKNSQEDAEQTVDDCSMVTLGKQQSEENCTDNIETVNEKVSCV

In the case of `NC(=O)C1(N2CCCCC2)CCN(CCCN2c3ccccc3CCc3ccccc32)CC1` [carpipramine, 5-[3-(4-carbamoyl-4-piperidinopiperidino)-1-propyl]-10,11-dihydrodibenz[b,f]azepine], the IC50 in series [1] is 3 nM. Also, the ED50 in series [2] was 8 mg/kg. The compound also registered an LD50 in series [3] of 250 mg/kg. Also, in the series with mice, the toxicity result is given as “low toxicity”.
